Test results reported in PubChem BioAssay (NCI).
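A five-concentration, 48-hour dose response in 96-well plates underlies each endpoint, interpolated linearly between surrounding concentrations. GI50 is the concentration that inhibits growth by half. At the TGI there is no net growth.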

Columns and labels:
Assay in all cases: growth of human tumour cells (NCI), 48 h
[1] = test system: 786-0 renal
[2] = test system: SK-OV-3 ovarian
[3] = test system: SK-MEL-5 melanoma
[4] = test system: KM12 colon
[5] = test system: HOP-62 NSCLC
[6] = test system: RPMI-8226 leukemia
[7] = test system: UACC-257 melanoma
[8] = test system: OVCAR-4 ovarian
[9] = test system: SF-539 CNS
[10] = test system: HCT-116 colon

SMILES	GI50 [1] [µM]	TGI [1] [µM]	GI50 [2] [µM]	TGI [2] [µM]	GI50 [3] [µM]	TGI [3] [µM]	GI50 [4] [µM]	TGI [4] [µM]	GI50 [5] [µM]	TGI [5] [µM]	GI50 [6] [µM]	TGI [6] [µM]	GI50 [7] [µM]	TGI [7] [µM]	GI50 [8] [µM]	TGI [8] [µM]	GI50 [9] [µM]	TGI [9] [µM]	GI50 [10] [µM]	TGI [10] [µM]
COC(=O)[C@H](C[C@H](Cc1ccccc1)NC(=O)c1csc([C@@H](C[C@H](C(C)C)N(C)C(=O)[C@@H](NC(=O)[C@H]2CCCCN2C)C(C)C)OC(C)=O)n1)NC(=O)OCc1ccccc1	0.00159	> 3.67	0.00199	> 9	< 0.0009	0.0182	< 0.0009	> 9	< 0.0009	> 9	< 0.0009	2.34	0.0349	2.78	0.0124	> 9	< 0.0009	0.00367	< 0.0009	–
COc1ccc(-c2n/c(=C\c3c(O)[nH]c4ccc(OC)cc34)cc3c2=Nc2ccccc2-3)cc1	1.92	3.37	22.5	46.6	1.53	2.91	3.8	> 100	2.36	4.91	3.21	37.3	2.07	4.48	–	–	1.85	3.4	1.85	3.33
COc1ccc2nc(-c3cccs3)cc(C(O)CN3CCSCC3)c2c1 (configuration not stated)	–	46.2	–	> 100	–	37.6	–	74.2	–	65.8	–	43	–	63.7	–	> 100	–	51.3	–	–
COc1cc(C(=O)C/C(CCCC(=O)Nc2ccccc2[N+](=O)[O-])=N/NC(=O)c2cc3ccccc3cc2O)ccc1O	–	> 100	–	95.7	–	> 83.7	–	82.5	–	> 100	–	> 100	–	82	–	> 100	–	> 100	–	> 100
COc1ccc2c(c1)cn1c3ccc(O)cc3nc(N)c21	0.947	6.86	0.324	6.48	0.0762	3.95	0.615	5.7	0.205	8.18	1.75	12.8	0.0793	1	1.57	15.7	0.237	2.72	0.0341	1.86
Oc1cccc2ccc(N/N=C/c3cc(CN4CCCCC4)c(O)c4ncccc34)nc12	0.0826	1.7	0.0435	0.653	0.0239	0.0559	0.0449	1.85	0.0456	8.04	0.0371	9.29	0.256	1.04	0.162	1.6	0.0481	2.68	0.0426	1.71
CC1=C(C)C(=O)c2c(cc3ccccn23)C1=O	–	72.9	–	63.6	–	22.1	–	31.3	–	–	–	65.9	–	–	–	> 100	–	37.1	–	–
CC1=C(Oc2ccccc2)C(CCC(=O)O)c2c(O)cc(Cl)c(O)c21 (configuration not stated)	–	> 100	–	–	–	> 100	–	> 100	–	> 100	–	> 100	–	> 100	–	> 100	–	> 100	–	> 100
NCCn1c(=O)[nH]c(=O)[nH]c1=S	> 100	> 100	> 100	> 100	> 100	> 100	> 100	> 100	> 100	> 100	> 100	> 100	> 100	> 100	> 100	> 100	> 100	> 100	> 100	> 100
C[C@@H]1C[C@H]2CC[C@H](O2)[C@H](C)C(=O)O[C@@H](C)C[C@@H]2CC[C@@H](O2)[C@@H](C)C(=O)O[C@H](C)C[C@H]2CC[C@H](O2)[C@H](C)C(=O)O[C@@H](C)C[C@@H]2CC[C@@H](O2)[C@@H](C)C(=O)O1	–	41.8	–	0.567	–	0.401	–	–	–	4.78	–	–	–	0.806	–	–	–	> 100	–	> 100
Cc1ccc(NC(=O)C(=O)C(C#N)c2ccccc2C)cc1C (configuration not stated)	–	> 100	–	> 100	–	> 100	–	> 100	–	> 100	–	> 100	–	> 100	–	> 100	–	> 100	–	> 63
CC1(C)C(=NNC(=O)C[N+](C)(C)C)C(C)(C)C1=NNC(=O)C[N+](C)(C)C	–	> 100	–	> 100	–	> 100	–	> 100	–	> 100	–	–	–	> 100	–	> 100	–	> 100	–	> 100
CSc1ccc(C2OC(=O)c3ccccc32)c2ccccc12 (configuration not stated)	–	> 100	–	> 100	–	> 100	–	> 100	–	> 100	–	> 100	–	> 100	–	> 100	–	> 100	–	> 100
CCN(CC)c1ccc(C(=O)c2ccccc2C(=O)O)c(O)c1	–	> 100	–	> 100	–	> 100	–	> 100	–	> 100	–	> 100	–	> 100	–	> 100	–	> 100	–	> 100
O=[N+]([O-])C1C2C=CC(C2)[C@H]1c1ccco1 (some centres not stated)	–	> 100	–	> 100	–	> 100	–	> 100	–	> 100	–	–	–	> 100	–	> 100	–	> 100	–	> 100
O=C1CC(c2ccc(O)cc2)C2(O1)C(=O)OC(C(O)CO)C2O (configuration not stated)	–	> 100	–	> 100	–	> 100	–	> 100	–	> 100	–	> 100	–	> 100	–	–	–	> 100	–	> 100
CCCCCCCCCCC(C(=O)O)C1(C(=O)O)CCC(=O)O1 (configuration not stated)	–	> 100	–	> 100	–	–	–	> 100	–	> 100	–	> 100	–	> 100	–	> 100	–	–	–	> 100
Cn1cc(-c2ccc3occ(-c4cccc(-c5ccncc5)c4)c3n2)cn1	1.25	> 100	1.82	> 100	0.406	1.63	0.358	> 100	0.815	> 100	–	–	2.6	> 100	2.7	> 100	0.734	5.54	0.382	> 100
